The record followed here is patent US20210260199A1, “NOVEL NARINGENIN/LIPOIC ACID CONJUGATE COMPOUND AND USE THEREOF” (priority 2018, published 2021).

The target in one assay is mushroom tyrosinase. Nature of the assay: Inhibitory effect on tyrosinase. The assay is classed as biochemical. Conditions: L-tyrosine substrate, pH 6.5, 37° C., 30 minutes; read-out: Inhibition of tyrosinase. How it is done: The inhibitory effect on tyrosinase related to skin whitening and melanin formation was measured using the following experimental method. 10 μL of each sample solution at a different concentration and 20 μL of mushroom tyrosinase in a phosphate buffer (pH 6.5) were added to a 96-well microplate and added with 170 μL of a mixed solution in which a 1 mM L-tyrosine solution, a 50 mM potassium phosphate buffer (pH 6.5) and distilled water were contained in a ratio of 10:10:9. Samples dissolved in DMSO were diluted 30 times with distilled water and used. After incubation at 37° C. for 30 minutes, the absorbance of the reaction solution was measured at 490 nm using a GENios microplate reader (Tecan Austria GmbH, Austria). The inhibition degree of tyrosinase by the addition of the sample was expressed as a 50% inhibition rate (IC50).

For assay [1], the system named is cortex culture containing neurons and glia. Nature of the assay: Total antioxidant capacity assay after OGD and I/R (Antioxidant Assay Kit). As to conditions: FIG. 2. The assay is classed as cell-based, rat. How it is done:
Several groups of plates were subjected to the OGD (oxygen-glucose deprivation) and I/R (ischemia-reperfusion), and the total antioxidant capacity was measured using a general commercial instrument (Antioxidant Assay Kit, Sigma-Aldrich). The average value of the three experiments was obtained and the antioxidant capacity was expressed in […].

Assay [2] can be described thus: Antioxidant capacity, radical scavenging ability by DPPH (Blois method). As to conditions: absorbance at 517 nm. How it is done: The antioxidant capacity of the novel compounds was measured by using a Blois method of measuring radical scavenging ability by DPPH which was widely known. A solution of DPPH by concentration was prepared in ethanol, and the initial absorbance was measured at 517 nm, and the absorbance over time was measured by adding a solution of the novel compound and the DPPH solution. The antioxidant capacity was expressed in % and an IC50 value was obtained using a calculation program.
(DPPH is a stable violet radical that fades when it is reduced.)

Assay [3] has as its system cortex culture containing neurons and glia. Nature of the assay: Brain cell protection in apoptosis induced by oxygen-glucose deprivation (OGD)/reoxygenation, LDH release. The assay is classed as cell-based, rat. Conditions: for protective effect on brain cells (apoptosis, % LDH release): OGD then 24 hours normoxic, 6 concentrations, FIG. 1. How it is done: A […] cortex culture medium containing neurons and glia was obtained from fetal rats during the gestation period of 17 to 18 days. That is, an embryonic tissue was extracted from a pregnant Sprague-Dawley and transferred to a Hanks Balanced Salt solution (Gibco) cooled with ice. The cortical brain tissue was sterile and thinly dissected and stored in cold HBSS before digestion with 0.0125% trypsin. The isolated cells were placed in a 96 well plate coated with poly-L-lysine (1 mg/ml, Sigma-Aldrich) in a Dulbecco's modified eagle medium (Gibco) containing 10% iron-supplemented fetal calf serum (Hyclone) and 1% antibiotic/antimycotic (Gibco) at 37° C. at a seeding density of 50,000 cells/well. Then, after attaching the culture medium overnight in a 37° C. incubator containing 5% CO2 and atmospheric oxygen, at the next day, the medium was replaced with a warm Neurobasal A medium (Gibco) containing 0.5 mmol/L of L-glutamine (Gibco) and supplemented with 1% B27, N2 and antibiotics/antimycotic (Gibco). In the culture for 14 to 16 days, half of the medium was changed every 4 days. After 14 days of cell culture, the culture medium was replaced with a vehicle (0.1% DMSO or EtOH) or an oxygen-free-glucose Neurobasal A containing an experimental substance (RA1, naringenin or lipoic acid) at 6 concentrations. After oxygen-glucose deprivation (OGD), the same volume of Neurobasal A with the same novel substance concentration was added and transferred to a normoxic condition (5% CO2 and atmospheric oxygen) state for 24 hours. Cellular activity was evaluated by measuring LDH release of damaged cells. The effects of lipoic acid, naringenin, and the novel substance RA1 on apoptosis (% LDH release) following ischemia/reoxygenation-reperfusion (I/R) were performed in the in vitro cell culture.
Background: Release of lactate dehydrogenase indicates damage to the cell membrane.

The test system of a further assay is cerebral infarction site. Kind of assay: Transient middle cerebral artery occlusion (t-MCAO), administration immediately before artery occlusion. Format: in vivo, Sprague-Dawley rats. Conditions: for size of the cerebral infarction site compared to the vehicle: 30 min occlusion, 5 h 30 min reperfusion, FIG. 3(A); for size of the cerebral infarction site, dependence on concentration: FIG. 3(B) and (C). On the procedure:
As a research model for cerebral infarction, transient middle cerebral artery occlusion (t-MCAO) in animals (rats) was used to examine the infarct size of the cerebral infarction site and the degree of its protective action. First, in an animal model in which the middle cerebral artery of Sprague-Dawley rats (300 to 350 g; Charles River, Montreal, PQ, CAN) was closed for 30 minutes to create a cerebral infarction and then reperfused for 5 hours and 30 minutes (t-MCAO), naringenin and RA1 (VANL-100) were administered immediately before artery occlusion and compared with a case of administration of a vehicle.

Regarding `O=C(O)CCCC[C@@H]1CCSS1` (racemic) [Lipoic acid], at mushroom tyrosinase, the IC50 is 44 µM. Moreover, the total antioxidant capacity result in assay [1] (0.25 and 25 ummol/L) is given as “no antioxidant effect”; in assay [1] (high concentrations of 125 and 1250 ummol/L) it was “great antioxidant capacity”. Besides, in assay [2], the “Antioxidant capacity (%)” value is recorded as 66.8%. Also, the “protective effect on brain cells (apoptosis, % LDH release)” value in assay [3] is “hardly showed a protective effect”.
On to `OC[C@H]1O[C@@H](Oc2ccc(O)cc2)[C@H](O)[C@@H](O)[C@@H]1O` [Arbutin, reference compound], for which the IC50 on mushroom tyrosinase was found to be 266 µM. Further, the “Antioxidant capacity (%)” value in assay [2] came out at 36%.
Consider `O=c1cc(CO)occ1O` [Kojic acid, reference compound], for which the “Antioxidant capacity (%)” value in assay [2] amounted to 28%.
In the case of `O=C1C[C@@H](c2ccc(O)cc2)Oc2cc(O)cc(O)c21` [Naringenin], in the assay with cerebral infarction site, the “size of the cerebral infarction site compared to the vehicle” value is “significantly reduced” and the “size of the cerebral infarction site, dependence on concentration” value is reported as “reduced the size of the cerebral infarction site depending on a concentration”. In addition, on mushroom tyrosinase, the IC50 was found to be 82 µM. The “Antioxidant capacity (%)” value in assay [2] was found to be 58.5%. Also, in assay [3], the “protective effect on brain cells (apoptosis, % LDH release)” value is reported as “slight effect at one concentration”.
As for `O=C(CCCCC1CCSS1)Oc1cc(O)c2c(c1)OC(c1ccc(O)cc1)CC2=O` (stereo not shown) [RA1, 5-hydroxy-2-(4-hydroxyphenyl)-4-oxochroman-7-yl 5-(1,2-dithiolan-3-yl)pentanoate], in the assay on cerebral infarction site, the “size of the cerebral infarction site compared to the vehicle” value is reported as “significantly reduced” and the “size of the cerebral infarction site, dependence on concentration” value was “reduced the size of the cerebral infarction site depending on a concentration”. The “effective concentration, times lower than naringenin (10 mg/kg)” value in the assay with cerebral infarction site (RA1 1×10^−3 mg/kg against naringenin 10 mg/kg) is on record as 10,000 times. Besides, the “size of the cerebral infarction site” value in the assay with cerebral infarction site (RA1 at 1×10^−3 mg/kg) is reported as “strongly reduced”. Further, in the assay with cerebral infarction site (animal brain infarction model, very low concentration), the “protective effect on brain cells, times stronger than naringenin or lipoic acid” value was ~10,000 times. On mushroom tyrosinase, the IC50 came to 32 µM. Also, the total antioxidant capacity result in assay [1] (2.5 to 1250 ummol/L) is listed as “strong protective effect”. Besides, the “strength of protective effect on brain cells at a very low concentration” value in assay [3] (FIG. 1D, comparison with lipoic acid and naringenin) is given as “about 100 times”. Moreover, the “protective effect on brain cells (apoptosis, % LDH release)” value in assay [3] is “very strong protective effect”.
As for `O=C(CCCCC1CCSS1)Oc1ccc(C2CC(=O)c3c(O)cc(O)cc3O2)cc1` (stereo not shown) [RA2, 4-(5,7-dihydroxy-4-oxochroman-2-yl)phenyl 5-(1,2-dithiolan-3-yl)pentanoate], the IC50 on mushroom tyrosinase came out at 58 µM. The “Antioxidant capacity (%)” value in assay [2] stood at 77%.
For `O=C(CCCCC1CCSS1)Oc1ccc(C2CC(=O)c3c(O)cc(OC(=O)CCCCC4CCSS4)cc3O2)cc1` (stereo not shown) [RA3, 4-(7-((5-(1,2-dithiolan-3-yl)pentanoyl)oxy)-5-hydroxy-4-oxochroman-2-yl)phenyl 5-(1,2-dithiolan-3-yl)pentanoate], the IC50 at mushroom tyrosinase was found to be 133 µM. For the same molecule, the “Antioxidant capacity (%)” value in assay [2] is 12.4%.
Consider `O=C(CCCCC1CCSS1)OCCOc1cc(O)c2c(c1)OC(c1ccc(O)cc1)CC2=O` (stereo not shown) [RA4, 2-((5-hydroxy-2-(4-hydroxyphenyl)-4-oxochroman-7-yl)oxy)ethyl 5-(1,2-dithiolan-3-yl)pentanoate], for which the IC50 on mushroom tyrosinase came to 260 µM. Besides, the “Antioxidant capacity (%)” value in assay [2] turned out to be 22%.
Take `O=C(CCCCC1CCSS1)OCCOCCOc1cc(O)c2c(c1)OC(c1ccc(O)cc1)CC2=O` (stereo not shown) [RA5, 2-(2-((5-hydroxy-2-(4-hydroxyphenyl)-4-oxochroman-7-yl)oxy)ethoxy) ethyl 5-(1,2-dithiolan-3-yl)pentanoate]: on mushroom tyrosinase, the IC50 is 225 µM. Also, the “Antioxidant capacity (%)” value in assay [2] came to 28.5%.
In the case of `O=C(CCCCC1CCSS1)OCCOCCOCCOc1cc(O)c2c(c1)OC(c1ccc(O)cc1)CC2=O` (stereo not shown) [RA6, 2-(2-(2-((5-hydroxy-2-(4-hydroxyphenyl)-4-oxochroman-7-yl)oxy)ethoxy)ethoxy)ethyl 5-(1,2-dithiolan-3-yl)pentanoate], the IC50 on mushroom tyrosinase was 350 µM. In assay [2], the “Antioxidant capacity (%)” value is given as 14.6%.
Take `O=C(CCCCC1CCSS1)OCCOCCOCCOCCOc1cc(O)c2c(c1)OC(c1ccc(O)cc1)CC2=O` (stereo not shown) [RA7, 2-(2-(2-(2-((5-hydroxy-2-(4-hydroxyphenyl)-4-oxochroman-7-yl)oxy)ethoxy)ethoxy)ethoxy)ethyl 5-(1,2-dithiolan-3-yl)pentanoate]: on mushroom tyrosinase, the IC50 is over 350 µM.
With `O=C(CCCCC1CCSS1)OCCOCCOCCOCCOCCOc1cc(O)c2c(c1)OC(c1ccc(O)cc1)CC2=O` (stereo not shown) [RA8, 14-((5-hydroxy-2-(4-hydroxyphenyl)-4-oxochroman-7-yl)oxy)-3,6,9,12-tetraoxatetradecyl 5-(1,2-dithiolan-3-yl)pentanoate], on mushroom tyrosinase, the IC50 was over 350 µM. In addition, the “Antioxidant capacity (%)” value in assay [2] was 11.5%.
Turning to `O=C(CCCCC1CCSS1)OCCOCCOCCOCCOCCOCCOc1cc(O)c2c(c1)OC(c1ccc(O)cc1)CC2=O` (stereo not shown) [RA9, 17-((5-hydroxy-2-(4-hydroxyphenyl)-4-oxochroman-7-yl)oxy)-3,6,9,12,15-pentaoxaheptadecyl 5-(1,2-dithiolan-3-yl)pentanoate], the IC50 at mushroom tyrosinase was over 350 µM. Further, the “Antioxidant capacity (%)” value in assay [2] was 24%.
